In patent publication US4894382A, “Substituted 1,3-diazolyl-2-propanols and their use as antimycotic agents” (Bayer Aktiengesellschaft, priority 1983, dated 1990):
In brackets after ≈: the same amount, converted by molar mass.

How the values were obtained:
Trichophyton mentagr. = assay: Antimycotic in vitro activity (series dilution test), Trichophyton mentagr.; format: cell-based, Trichophyton mentagrophytes; details: Sabourand's milieu d'epreuve, 5×10^4 germs/ml, 20° C., 96 hours, read-out: MIC values in Y/ml of nutrient medium for Trichophyton mentagr.
Protocol: (§1) Antimycotic in vitro activity
(§2) The in vitro tests were carried out in a series dilution test using germ inocula of on average 5×10^4 germs/ml of substrate. The nutrient medium used was (a) for dermatophytes and moulds: Sabourand's milieu d'epreuve, and (b) for yeasts: meat extract/glucose broth.
(§3) The incubation temperature was 20° C. and the incubation time was 24 to 96 hours for yeasts and 96 hours for dermatophytes and moulds.

Microsporum canis = assay: Antimycotic in vitro activity (series dilution test), Microsporum canis; format: cell-based; details: Sabourand's milieu d'epreuve, 5×10^4 germs/ml, 20° C., 96 hours, read-out: MIC values in Y/ml of nutrient medium for Microsporum canis
Protocol: as §1, §2, §3

Candida albicans = assay: Antimycotic in vitro activity (series dilution test), Candida albicans; format: cell-based; details: meat extract/glucose broth, 5×10^4 germs/ml, 20° C., 24 to 96 hours, read-out: MIC values in Y/ml of nutrient medium for Candida albicans
Protocol: as §1, §2, §3

Torulopsis glabrata = assay: Antimycotic in vitro activity (series dilution test), Torulopsis glabrata; format: cell-based; details: Nakaseomyces glabratus; meat extract/glucose broth; 5×10^4 germs/ml; 20° C.; 24 to 96 hours; read-out: MIC values in Y/ml of nutrient medium for Torulopsis glabrata
Protocol: as §1, §2, §3

Aspergillus fumigatus = assay: Antimycotic in vitro activity (series dilution test), Aspergillus fumigatus; format: cell-based; details: Sabourand's milieu d'epreuve, 5×10^4 germs/ml, 20° C., 96 hours, read-out: MIC values in Y/ml of nutrient medium for Aspergillus fumigatus
Protocol: as §1, §2, §3

[1] = test system: dermatophytes, moulds and yeasts; assay: Antimycotic in vitro activity (series dilution test), overall; format: cell-based
Protocol: as §1, §2, §3

Candida = assay: Antimycotic in vivo action (oral) in candidosis of mice; set-up: species or system mice of the SPF-CF1 type; details: 10-50 mg/kg one hour before and seven hours after i.v. infection
Protocol: Antimycotic in vivo action (oral) in candidosis of mice
Mice of the SPF-CF1 type were infected intravenously with 1-2×10^6 logarithmically growing Candida cells, suspended in physiological saline solution. The animals were treated orally one hour before and seven hours after the infection, with in each case 10-50 mg/kg of body weight of the products.
Untreated animals died 3 to 6 days after infection. The survival rate on the 6th day after infection was about 5% in the case of untreated animals.

SMILES	MIC (Trichophyton mentagr.)	MIC (Microsporum canis)	MIC (Candida albicans)	MIC (Torulopsis glabrata)	MIC (Aspergillus fumigatus)	antimycotic action in vitro (in words) [1]	Action (survivors on the 6th day after infection) (Candida)	action in candidosis of mice (in words) (Candida)
Cc1ccc(CC(C)(C)C(O)(Cn2cncn2)Cn2cncn2)cc1 [Example 3]	1 µg/mL (≈ 2.94 µM)	8 µg/mL (≈ 23.5 µM)	16 µg/mL (≈ 47 µM)	64 µg/mL (≈ 188 µM)	4 µg/mL (≈ 11.7 µM)	good antimycotic action	++++ (good action=80% survivors on the 6th day after infection)	good to very good action
CC(C)(Cc1ccc(Cl)cc1)C(O)(Cn1ccnc1)Cn1cncn1 (centres unmarked) [Example 8]	–	–	–	–	–	–	++++ (good action=80% survivors on the 6th day after infection)	good to very good action
CC(C)(CSc1ccc(Cl)cc1)C(O)(Cn1cncn1)Cn1cncn1 [Example 5]	1 µg/mL (≈ 2.55 µM)	32 µg/mL (≈ 81.4 µM)	32 µg/mL (≈ 81.4 µM)	64 µg/mL (≈ 163 µM)	32 µg/mL (≈ 81.4 µM)	good antimycotic action	++++ (good action=80% survivors on the 6th day after infection)	good to very good action
CC(C)(Cc1ccc(Cl)cc1)C(O)(Cn1cncn1)Cn1cncn1 [Example 2]	1 µg/mL (≈ 2.77 µM)	4 µg/mL (≈ 11.1 µM)	4 µg/mL (≈ 11.1 µM)	16 µg/mL (≈ 44.3 µM)	4 µg/mL (≈ 11.1 µM)	good antimycotic action	+++++ (very good action=90% survivors on the 6th day after infection)	good to very good action
CC(C)(Cc1ccc(Cl)cc1Cl)C(O)(Cn1cncn1)Cn1cncn1 [Example 1, 4-(2,4-dichlorophenyl)-3,3-dimethyl-2-(1,2,4-triazol-1-yl-methyl)-1-(1,2,4-triazol-1-yl)-2-butanol]	1 µg/mL (≈ 2.53 µM)	32 µg/mL (≈ 81 µM)	32 µg/mL (≈ 81 µM)	64 µg/mL (≈ 162 µM)	32 µg/mL (≈ 81 µM)	good antimycotic action	+++++ (very good action=90% survivors on the 6th day after infection)	good to very good action
CC(C)(Oc1ccc(Cl)cc1)C(O)(Cn1cncn1)Cn1cncn1 [Example 6]	32 µg/mL (≈ 88.2 µM)	–	4 µg/mL (≈ 11 µM)	16 µg/mL (≈ 44.1 µM)	64 µg/mL (≈ 176 µM)	good antimycotic action	++++ (good action=80% survivors on the 6th day after infection)	good to very good action
